The text below walks through data of paper PMC6100537, “Exploration of the Fluorescent Properties and the Modulated Activities against Sirtuin Fluorogenic Assays of Chromenone-Derived Natural Products” (Molecules : A Journal of Synthetic Chemistry and Natural …, 2018).

SMILES strings stand for the structures.

One assay deals with T1, SIRT1 (Homo sapiens, UniProt Q96EB6).
T1 construct: SIRT1 (part)
T1 sequence (Q96EB6 2-747): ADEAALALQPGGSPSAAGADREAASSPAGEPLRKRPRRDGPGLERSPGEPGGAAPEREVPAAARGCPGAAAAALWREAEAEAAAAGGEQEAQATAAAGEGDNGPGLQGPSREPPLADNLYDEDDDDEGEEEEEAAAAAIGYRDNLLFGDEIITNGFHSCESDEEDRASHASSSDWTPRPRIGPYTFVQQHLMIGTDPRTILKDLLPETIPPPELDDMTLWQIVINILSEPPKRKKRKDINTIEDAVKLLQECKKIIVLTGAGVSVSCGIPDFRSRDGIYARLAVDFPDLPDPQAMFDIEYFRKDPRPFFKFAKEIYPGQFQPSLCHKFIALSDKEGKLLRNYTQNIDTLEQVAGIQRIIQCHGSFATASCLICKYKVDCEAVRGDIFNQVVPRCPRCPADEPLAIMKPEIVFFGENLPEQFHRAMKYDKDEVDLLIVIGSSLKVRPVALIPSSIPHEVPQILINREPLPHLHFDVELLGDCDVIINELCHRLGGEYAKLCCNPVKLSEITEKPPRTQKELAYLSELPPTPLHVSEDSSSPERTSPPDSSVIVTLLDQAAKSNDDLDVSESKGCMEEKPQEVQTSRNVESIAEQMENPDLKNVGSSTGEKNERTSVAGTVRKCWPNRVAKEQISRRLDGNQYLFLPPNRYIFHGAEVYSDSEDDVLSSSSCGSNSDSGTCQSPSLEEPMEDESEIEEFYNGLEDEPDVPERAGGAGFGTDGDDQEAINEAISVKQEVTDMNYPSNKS
The experiment in a line: AMC-peptide fluorogenic deacetylase assay with recombinant SIRT1, activation at […], compound fluorescence background subtracted. Type of assay: biochemical.

A further assay addresses T2, SIRT2 (Homo sapiens, UniProt Q8IXJ6).
T2 construct: SIRT2 (whole)
T2 sequence (Q8IXJ6 1-389): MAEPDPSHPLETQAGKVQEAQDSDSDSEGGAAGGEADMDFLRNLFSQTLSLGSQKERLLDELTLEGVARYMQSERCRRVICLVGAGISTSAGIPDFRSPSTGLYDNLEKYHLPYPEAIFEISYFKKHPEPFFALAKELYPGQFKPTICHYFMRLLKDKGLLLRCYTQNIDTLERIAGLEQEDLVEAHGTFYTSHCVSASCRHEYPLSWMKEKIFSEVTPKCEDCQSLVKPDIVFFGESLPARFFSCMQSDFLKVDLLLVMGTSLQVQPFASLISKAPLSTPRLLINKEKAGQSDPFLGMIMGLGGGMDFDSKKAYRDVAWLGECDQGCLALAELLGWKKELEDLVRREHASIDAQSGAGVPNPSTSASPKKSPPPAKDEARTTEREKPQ
The experiment in a line: AMC-peptide fluorogenic deacetylase assay with recombinant SIRT2; Lineweaver-Burk kinetics. In kind it is biochemical.

Broadly, the fold induction is the signal under treatment as a multiple of the control signal. Turning to `Oc1ccc(/C=C/c2cc(O)cc(O)c2)cc1` [compound 1, resveratrol], the fold induction at 10 µM at SIRT1 turned out to be 11.6. The IC50 is the concentration that gives 50% inhibition. For `COc1ccc2ccc(=O)oc2c1CC=C(C)C` [compound 4, osthole], on SIRT2, the IC50 turned out to be 10 µM.
